Experimental data from paper PMC3419725, “A Small Molecule Agonist of EphA2 Receptor Tyrosine Kinase Inhibits Tumor Cell Migration In Vitro and Prostate Cancer Metastasis In Vivo” (PLoS ONE, 2012).

Molecular target: T1, EphA2 (Homo sapiens, UniProt P29317)
T1 construct: Methods: biotinylated extracellular domain (ECD)
Test: SPR; also receptor activation in cells
Assay type: binding

T1 sequence (P29317 28-206 limits assumed): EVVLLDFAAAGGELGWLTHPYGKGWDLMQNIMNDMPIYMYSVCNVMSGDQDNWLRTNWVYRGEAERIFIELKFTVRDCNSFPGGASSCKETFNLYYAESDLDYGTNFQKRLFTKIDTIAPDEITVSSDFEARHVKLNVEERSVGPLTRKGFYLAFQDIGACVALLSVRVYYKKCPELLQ

Structure (SMILES): COc1cc2nc(N3CCN(C(=O)C4COc5ccccc5O4)CC3)nc(N)c2cc1OC (stereo not shown) [compound 11, doxazosin]
- Kd: 47.6 µM
